Data: patent publication US20230398130A1, “METHODS AND COMPOSITIONS FOR DIFFERENTIATING STEM CELLS” (Massachusetts Institute of Technology, priority 2020, published 2023)

How the values were obtained:
[1] = tested on: ISC-enriched organoids; test: Primary screen, 384-well 2.5-D organoid differentiation (ENR+CD, 6 days): basal lysozyme secretion (LYZ.NS); type: cell-based, murine; details: for Dose.FC.LYZ.NS: FC vs plate median; for Z.LYZ.NS: standard z score of FC; for Dose.FC.LYZ.NS (log 2 fold change): vs plate median
Text: (§1) High-throughput screening.

[2] = tested on: ISC-enriched organoids; test: Primary screen, 384-well 2.5-D organoid differentiation (ENR+CD, 6 days, Target Selective Inhibitor Library, vs whole-plate median): ATP (CellTiter-Glo 3D, CTG); details: for Dose.FC.CTG: FC vs plate median; for Z.CTG: standard z score of FC; for Dose.FC.CTG (log 2 fold change): vs plate median
[3] = tested on: ISC-enriched organoids; test: Primary screen, 384-well 2.5-D organoid differentiation (ENR+CD, 6 days): carbachol-induced lysozyme secretion (LYZ.S); type: cell-based, murine; details: for Dose.FC.LYZ.S: FC vs plate median; for Dose.FC.LYZ.S (log 2 fold change): vs plate median
Text: as §1

N#CSc1cc(SC#N)c(N)nc1N [PR-619]
Dose.FC.LYZ.NS ([1]; Dose 0.08 uM, primary screen): 0.100 log 2 fold change | Z.LYZ.NS ([1]; Dose 0.08 uM): 0.872 | Z.LYZ.NS (standard z score) ([1]; Dose 0.40 uM, primary screen): 0.448 | Dose.FC.LYZ.NS (log 2 fold change) ([1]; Dose 0.40 uM, primary screen): 0.051 | Z.LYZ.NS (standard z score) ([1]; Dose 2.00 uM, primary screen): 0.495 | Dose.FC.LYZ.NS (log 2 fold change) ([1]; Dose 2.00 uM, primary screen): 0.057 | Z.LYZ.NS (standard z score) ([1]; Dose 10.00 uM, primary screen): −1.687 | Dose.FC.LYZ.NS (log 2 fold change) ([1]; Dose 10.00 uM, primary screen): −0.194 | Dose.FC.CTG ([2]; Dose 0.08 uM, primary screen): 0.054 log 2 fold change | Z.CTG ([2]; Dose 0.08 uM): 0.130 | Z.CTG (standard z score) ([2]; Dose 0.40 uM, primary screen): 0.266 | Dose.FC.CTG (log 2 fold change) ([2]; Dose 0.40 uM, primary screen): 0.111 | Z.CTG (standard z score) ([2]; Dose 2.00 uM, primary screen): 0.053 | Dose.FC.CTG (log 2 fold change) ([2]; Dose 2.00 uM, primary screen): 0.022 | Z.CTG (standard z score) ([2]; Dose 10.00 uM, primary screen): −0.764 | Dose.FC.CTG (log 2 fold change) ([2]; Dose 10.00 uM, primary screen): −0.320 | Dose.FC.LYZ.S ([3]; Dose 0.08 uM, primary screen): 0.122 log 2 fold change | Dose.FC.LYZ.S (log 2 fold change) ([3]; Dose 0.40 uM, primary screen): 0.047 | Dose.FC.LYZ.S (log 2 fold change) ([3]; Dose 2.00 uM, primary screen): 0.081 | Dose.FC.LYZ.S (log 2 fold change) ([3]; Dose 10.00 uM, primary screen): −0.193

C[S+]([O-])c1ccc(-c2nc(-c3ccc(F)cc3)c(-c3ccncc3)[nH]2)cc1 (stereo not shown) [SB203580]
Z.LYZ.NS (standard z score) ([1]; Dose 0.08 uM, primary screen): 0.805 | Dose.FC.LYZ.NS (log 2 fold change) ([1]; Dose 0.08 uM, primary screen): 0.092 | Z.LYZ.NS (standard z score) ([1]; Dose 0.40 uM, primary screen): 1.109 | Dose.FC.LYZ.NS (log 2 fold change) ([1]; Dose 0.40 uM, primary screen): 0.127 | Z.LYZ.NS (standard z score) ([1]; Dose 2.00 uM, primary screen): 0.453 | Dose.FC.LYZ.NS (log 2 fold change) ([1]; Dose 2.00 uM, primary screen): 0.052 | Z.LYZ.NS (standard z score) ([1]; Dose 10.00 uM, primary screen): 0.199 | Dose.FC.LYZ.NS (log 2 fold change) ([1]; Dose 10.00 uM, primary screen): 0.023 | Z.CTG (standard z score) ([2]; Dose 0.08 uM, primary screen): 0.479 | Dose.FC.CTG (log 2 fold change) ([2]; Dose 0.08 uM, primary screen): 0.201 | Z.CTG (standard z score) ([2]; Dose 0.40 uM, primary screen): 0.356 | Dose.FC.CTG (log 2 fold change) ([2]; Dose 0.40 uM, primary screen): 0.149 | Z.CTG (standard z score) ([2]; Dose 2.00 uM, primary screen): 0.567 | Dose.FC.CTG (log 2 fold change) ([2]; Dose 2.00 uM, primary screen): 0.237 | Z.CTG (standard z score) ([2]; Dose 10.00 uM, primary screen): 0.435 | Dose.FC.CTG (log 2 fold change) ([2]; Dose 10.00 uM, primary screen): 0.182 | Dose.FC.LYZ.S (log 2 fold change) ([3]; Dose 0.08 uM, primary screen): 0.148 | Dose.FC.LYZ.S (log 2 fold change) ([3]; Dose 0.40 uM, primary screen): 0.098 | Dose.FC.LYZ.S (log 2 fold change) ([3]; Dose 2.00 uM, primary screen): 0.077 | Dose.FC.LYZ.S (log 2 fold change) ([3]; Dose 10.00 uM, primary screen): 0.069

O=C1NC(=O)/C(=C/c2cccc(C(F)(F)F)c2)S1 [SMI-4a]
Z.LYZ.NS (standard z score) ([1]; Dose 0.08 uM, primary screen): 0.188 | Dose.FC.LYZ.NS (log 2 fold change) ([1]; Dose 0.08 uM, primary screen): 0.022 | Z.LYZ.NS (standard z score) ([1]; Dose 0.40 uM, primary screen): −0.524 | Dose.FC.LYZ.NS (log 2 fold change) ([1]; Dose 0.40 uM, primary screen): −0.060 | Z.LYZ.NS (standard z score) ([1]; Dose 2.00 uM, primary screen): 0.283 | Dose.FC.LYZ.NS (log 2 fold change) ([1]; Dose 2.00 uM, primary screen): 0.032 | Z.LYZ.NS (standard z score) ([1]; Dose 10.00 uM, primary screen): −0.643 | Dose.FC.LYZ.NS (log 2 fold change) ([1]; Dose 10.00 uM, primary screen): −0.074 | Z.CTG (standard z score) ([2]; Dose 0.08 uM, primary screen): −0.366 | Dose.FC.CTG (log 2 fold change) ([2]; Dose 0.08 uM, primary screen): −0.153 | Z.CTG (standard z score) ([2]; Dose 0.40 uM, primary screen): −0.758 | Dose.FC.CTG (log 2 fold change) ([2]; Dose 0.40 uM, primary screen): −0.317 | Z.CTG (standard z score) ([2]; Dose 2.00 uM, primary screen): −0.793 | Dose.FC.CTG (log 2 fold change) ([2]; Dose 2.00 uM, primary screen): −0.332 | Z.CTG (standard z score) ([2]; Dose 10.00 uM, primary screen): −0.781 | Dose.FC.CTG (log 2 fold change) ([2]; Dose 10.00 uM, primary screen): −0.327 | Dose.FC.LYZ.S (log 2 fold change) ([3]; Dose 0.08 uM, primary screen): 0.036 | Dose.FC.LYZ.S (log 2 fold change) ([3]; Dose 0.40 uM, primary screen): −0.063 | Dose.FC.LYZ.S (log 2 fold change) ([3]; Dose 2.00 uM, primary screen): −0.042 | Dose.FC.LYZ.S (log 2 fold change) ([3]; Dose 10.00 uM, primary screen): −0.134

COc1ccccc1S(=O)(=O)Nc1ccc2c(c1)CN(C)C(=O)N2 [PFI-1 (PF-6405761)]
Dose.FC.LYZ.NS ([1]; Dose 0.08 uM, primary screen): 0.062 log 2 fold change | Z.LYZ.NS ([1]; Dose 0.08 uM): 0.538 | Dose.FC.LYZ.NS ([1]; Dose 0.40 uM, primary screen): 0.079 log 2 fold change | Z.LYZ.NS ([1]; Dose 0.40 uM): 0.691 | Dose.FC.LYZ.NS ([1]; Dose 2.00 uM, primary screen): −0.098 log 2 fold change | Z.LYZ.NS ([1]; Dose 2.00 uM): −0.852 | Dose.FC.LYZ.NS ([1]; Dose 10.00 uM, primary screen): −0.066 log 2 fold change | Z.LYZ.NS ([1]; Dose 10.00 uM): −0.573 | Dose.FC.CTG ([2]; Dose 0.08 uM, primary screen): 0.142 log 2 fold change | Z.CTG ([2]; Dose 0.08 uM): 0.340 | Dose.FC.CTG ([2]; Dose 0.40 uM, primary screen): 0.390 log 2 fold change | Z.CTG ([2]; Dose 0.40 uM): 0.931 | Dose.FC.CTG ([2]; Dose 2.00 uM, primary screen): 0.322 log 2 fold change | Z.CTG ([2]; Dose 2.00 uM): 0.770 | Dose.FC.CTG ([2]; Dose 10.00 uM, primary screen): −0.389 log 2 fold change | Z.CTG ([2]; Dose 10.00 uM): −0.929 | Dose.FC.LYZ.S ([3]; Dose 0.08 uM, primary screen): 0.061 log 2 fold change | Dose.FC.LYZ.S ([3]; Dose 0.40 uM, primary screen): 0.104 log 2 fold change | Dose.FC.LYZ.S ([3]; Dose 2.00 uM, primary screen): −0.117 log 2 fold change | Dose.FC.LYZ.S ([3]; Dose 10.00 uM, primary screen): −0.194 log 2 fold change

O=C(O)c1cc2cccc([N+](=O)[O-])c2[nH]1 [CRT0044876]
Dose.FC.LYZ.NS ([1]; Dose 0.08 uM, ENR+CD, 6 days): 0.016 log 2 fold change | Z.LYZ.NS ([1]; Dose 0.08 uM): 0.135 | Dose.FC.LYZ.NS ([1]; Dose 0.40 uM, ENR+CD, 6 days): 0.034 log 2 fold change | Z.LYZ.NS ([1]; Dose 0.40 uM): 0.298 | Dose.FC.LYZ.NS ([1]; Dose 2.00 uM, ENR+CD, 6 days): 0.047 log 2 fold change | Z.LYZ.NS ([1]; Dose 2.00 uM): 0.408 | Dose.FC.LYZ.NS ([1]; Dose 10.00 uM, ENR+CD, 6 days): 0.032 log 2 fold change | Z.LYZ.NS ([1]; Dose 10.00 uM): 0.278 | Dose.FC.CTG ([2]; Dose 0.08 uM, ENR+CD, 6 days): −0.171 log 2 fold change | Z.CTG ([2]; Dose 0.08 uM): −0.410 | Dose.FC.CTG ([2]; Dose 0.40 uM, ENR+CD, 6 days): −0.040 log 2 fold change | Z.CTG ([2]; Dose 0.40 uM): −0.096 | Dose.FC.CTG ([2]; Dose 2.00 uM, ENR+CD, 6 days): −0.081 log 2 fold change | Z.CTG ([2]; Dose 2.00 uM): −0.192 | Dose.FC.CTG ([2]; Dose 10.00 uM, ENR+CD, 6 days): −0.099 log 2 fold change | Z.CTG ([2]; Dose 10.00 uM): −0.237 | Dose.FC.LYZ.S ([3]; Dose 0.08 uM, ENR+CD, 6 days): −0.002 log 2 fold change | Dose.FC.LYZ.S ([3]; Dose 0.40 uM, ENR+CD, 6 days): 0.055 log 2 fold change | Dose.FC.LYZ.S ([3]; Dose 2.00 uM, ENR+CD, 6 days): 0.014 log 2 fold change | Dose.FC.LYZ.S ([3]; Dose 10.00 uM, ENR+CD, 6 days): −0.061 log 2 fold change
